The assay concerns the target Dihydroorotate dehydrogenase (quinone), mitochondrial (Homo sapiens, UniProt Q02127).

Molecules are shown by their SMILES.

The term IC50 denotes the point on the concentration scale where inhibition reaches its midpoint. Lower therefore signals inhibition by little substance.

Chain of Dihydroorotate dehydrogenase (quinone), mitochondrial (Q02127 whole entry): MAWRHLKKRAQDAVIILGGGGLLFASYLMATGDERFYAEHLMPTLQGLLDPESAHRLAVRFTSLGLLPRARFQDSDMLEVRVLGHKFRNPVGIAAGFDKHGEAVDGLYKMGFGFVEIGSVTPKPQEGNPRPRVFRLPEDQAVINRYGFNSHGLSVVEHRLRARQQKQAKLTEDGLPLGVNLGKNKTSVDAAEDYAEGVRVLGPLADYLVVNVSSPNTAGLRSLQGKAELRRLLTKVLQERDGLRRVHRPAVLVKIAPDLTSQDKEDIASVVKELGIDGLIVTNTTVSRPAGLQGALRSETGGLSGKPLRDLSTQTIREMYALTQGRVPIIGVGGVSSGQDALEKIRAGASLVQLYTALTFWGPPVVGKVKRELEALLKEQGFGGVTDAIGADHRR
Description: In vitro inhibitory activity against human dihydroorotate dehydrogenase (DHODH)

Regarding `CN(C)c1ccc(-c2ccc(NC(=O)C3=C(C(=O)O)CCC3)cc2Cl)cc1`, the IC50 is 50 nM.
Under `O=C(O)C1=C(C(=O)Nc2ccc(-c3ccc(OC(F)(F)F)cc3)cc2F)CCC1` stands 5700 nM; under `N#Cc1cc(-c2cccc(OC(F)(F)F)c2)ccc1NC(=O)C1=C(C(=O)O)CCC1`, 370 nM.
Under `COc1cccc(-c2ccc(NC(=O)C3=C(C(=O)O)CCC3)c(OC)c2)c1` stands 170 nM; under `O=C(O)C1=C(C(=O)Nc2ccc(-c3cccc(OC(F)(F)F)c3)cc2F)CCC1`, 280 nM.
`O=C(O)C1=C(C(=O)Nc2c(F)cc(-c3ccccc3F)cc2F)CCC1` gave an IC50 of 45 nM. Against the preceding compound, the IC50 is about 6.2-fold lower.
Under `CN(C)c1ccc(-c2cc(F)c(NC(=O)C3=C(C(=O)O)CCC3)c(F)c2)cc1` stands 610 nM.
Under `O=C(O)C1=C(C(=O)Nc2c(F)c(F)c(-c3cccc(OC(F)(F)F)c3)c(F)c2F)CCC1` stands 7 nM.
To `O=C(O)C1=C(C(=O)Nc2ccc(-c3ccc(Br)cc3)cc2Cl)CCC1` belongs 2900 nM; to `O=C(O)C1=C(C(=O)Nc2ccc(-c3cccc(OC(F)(F)F)c3)cc2[N+](=O)[O-])CCC1`, 390 nM; to `O=C(O)C1=C(C(=O)Nc2ccc(-c3cccc(OC(F)(F)F)c3)cc2Cl)CCC1`, 290 nM.
Take `Cc1cc(-c2cccc(OC(F)(F)F)c2)ccc1NC(=O)C1=C(C(=O)O)CCC1`: 150 nM corresponded to half-maximal inhibition (IC50).
To `COc1cc(-c2ccccc2Cl)ccc1NC(=O)C1=C(C(=O)O)CCC1` belongs 225 nM; to `O=C(O)C1=C(C(=O)Nc2ccc(-c3cccc(OC(F)(F)F)c3)cc2C(F)(F)F)CCC1`, 840 nM; to `O=C(O)C1=C(C(=O)Nc2c(F)cc(-c3cccc(OC(F)(F)F)c3)cc2F)CCC1`, 33 nM.
To `CC(C)(C)c1ccc(-c2ccc(NC(=O)C3=C(C(=O)O)CCC3)cc2Cl)cc1` belongs 80 nM; to `COc1ccccc1-c1ccc(NC(=O)C2=C(C(=O)O)CCC2)c(Cl)c1`, 310 nM; to `O=C(O)C1=C(C(=O)Nc2c(F)cc(-c3ccccc3Cl)cc2F)CCC1`, 18 nM.
To `O=C(O)C1=C(C(=O)Nc2ccc(-c3ccc(Br)cc3)cc2F)CCC1` belongs 735 nM.
`O=C(O)C1=C(C(=O)Nc2ccc(-c3cccc(OC(F)(F)F)c3)c(Cl)c2)CCC1` yielded an IC50 of 20 nM.
In turn, `COc1ccc(-c2cc(F)c(NC(=O)C3=C(C(=O)O)CCC3)c(F)c2)c(OC)c1` displayed an IC50 of 90 nM.
On to `O=C(O)C1=C(C(=O)Nc2ccc(-c3cccc(O)c3)cc2F)CCC1`, for which the IC50 came to 610 nM.
To `COc1ccccc1-c1c(F)c(F)c(NC(=O)C2=C(C(=O)O)CCC2)c(F)c1F` belongs 8 nM; to `COc1ccc(-c2ccc(NC(=O)C3=C(C(=O)O)CCC3)c(F)c2)cc1`, 1700 nM; to `O=C(O)C1=C(C(=O)Nc2ccc(-c3ccccc3)cc2)CCC1`, 410 nM.
To `O=C(O)C1=C(C(=O)Nc2ccc(-c3ccc(Br)cc3)c(Cl)c2)CCC1` belongs 70 nM; to `O=C(O)C1=C(C(=O)Nc2ccc(-c3cccc4ccccc34)cc2C(F)(F)F)CCC1`, 180 nM; to `CCOc1cccc(-c2cc(F)c(NC(=O)C3=C(C(=O)O)CCC3)c(F)c2)c1`, 17 nM.
As to `COc1ccc(-c2ccc(NC(=O)C3=C(C(=O)O)CCC3)c(Cl)c2)cc1`, the IC50 worked out at 8400 nM.

For the origin of these results see ChEMBL document CHEMBL1146710, “Discovery of a novel series of DHODH inhibitors by a docking procedure and QSAR refinement” (Bioorg Med Chem Lett, 2004).
